Assay results taken from publication PMC12765108, “Establishing selectivity of FAK-paxillin PPI inhibitor using pulldown proteomics and a focal adhesion protein selectivity panel” (Biochemistry and Biophysics Reports, 2025).
Entries after “also recorded” stand apart in the source; their conditions may differ.

How the values were obtained:
[1] = ref [5]; cited from earlier work
From the text: (§1) The most significant finding in this manuscript is the nanomolar, highly specific affinity (Fig. 4g) between UA-1907 and the FAK FAT domain by SPR, but not […], PARVA, PARVB, VinH, and VinT. As previously discussed, the challenge of targeting FAK historically has been the off-target effects of ATP-competitive kinase inhibitors. […] The high selectivity of the FAT domain t ...

kinome = conditions: ref [5]; cited from earlier work
From the text: as §1

Paxillin = assay: Pulldown (MS and WB), SK-MEL-147 lysate; format: binding
Protocol: 3000ug of SK-MEL-147 lysates were precleared in 60uL agarose beads for 1 h at 4C. […] Beads were washed with NP40 buffer without inhibitors and proteins were eluted using 63 mM Tris pH 6.8 and 5 % SDS. Elution proteins underwent trypsin digestion and were analyzed in nanoLC-MS/MS at the UA Biological Mass Spectroscopy Core using the Thermo Q Exactive Orbitrap mass spectrometer (MS) coupled to the Thermo Vanquish Neo nano-LC system. Peptide sequences were determined, correlated to SwissProt protein sequences, and normalized in Scaffold Proteomics Discoverer.
Protein Label Free Quantification (LFQ) was represented by Normalized Total Spectra. Fold Enrichment (FE) was calculated using Eq. (1): FE=(PulldownLFQ−EthanolamineControlBeadLFQ)/TotalLysateLFQ
Bead elutions were ran on a 4–20 % TGX Stain Free Gel and imaged via Stain Free Imaging (ChemDoc Biorad Imager) before transfer onto a PVDF membrane (TurboTransfer High MW). Blots were blocked using 5 % BSA in TBS-0.1 % Tween-20. Each primary antibody was used in 1:1000 dilution and incubated overnight at 4C. Blots were washed 3X and incubated in 1:5000 secondary antibody at RT for 1 h. Blots were incubated with ECL reagent (Biorad) for 5 min. Blots were imaged utilizing ChemDoc Biorad Imager for 3 min taking 60 total images. Results can be found in Supplementary Fig. 2.

FAK FAT (a.a. 892–1052) = target: T1, FAK FAT (a.a. 892–1052) (Homo sapiens, UniProt Q05397); assay: SPR direct binding; conditions: 4.9 nM to […]
T1 construct: FAK FAT (a.a. 892–1052); 6X His (N); made in house; host or cells: E. coli BL21 DE3
T1 sequence (Q05397 892-1052): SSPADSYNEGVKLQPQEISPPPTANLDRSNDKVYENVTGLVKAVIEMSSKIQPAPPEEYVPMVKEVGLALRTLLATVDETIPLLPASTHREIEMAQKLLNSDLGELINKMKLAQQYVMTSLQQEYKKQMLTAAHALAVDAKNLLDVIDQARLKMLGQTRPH
From the text: (§2) Vinculin Tail (VinT) (a.a. 811–1066), Vinculin Head (VinH) (a.a. 1–258), Actopaxin, (PARVA complete protein), beta-parvin (PARVB, total protein), FAK FAT (a.a. 892–1052), and Talin-1 Rod 8 (a.a. 1453–1580) were purified in E. coli BL21 DE3 using 6X-Histag TOPO-100 plasmid constructs with AmpR gene (ThermoFisher). Purification procedures were as previously described. Proteins were purified using NiNTA affinity chromatography (ThermoFisher) followed by size-exclusion chromatography using the Akta Pump 900 system and HiLoad 26/600 SuperDex 75 pg column. Major peaks (Unicorn 3.0 software) were validated using SDS-PAGE stain free imaging (Biorad).
SPR was performed on a Sartorius Pioneer FE instrument as previously described. Briefly, biotinylated UA-1907 was immobilized onto Streptavidin Dextran Hydrogel (SADH) biosensor at a RU = 50. […] Equilibrium dissociation constant (KD) was calculated using Qdat software and 1:1 kinetic binding model.

[2] = tested on: FA selectivity panel (VinT, VinH, PARVA, PARVB, Talin-1 Rod 8, FAK FAT); assay: SPR focal adhesion selectivity panel; format: binding
From the text: as §2
SPR was performed on a Sartorius Pioneer FE instrument as previously described. Briefly, biotinylated UA-1907 was immobilized onto Streptavidin Dextran Hydrogel (SADH) biosensor at a RU = 50. Proteins were flowed over at 75 μL/min in running buffer (50 mM Tris pH 8.0, 200 mM NaCl, 5 % glycerol) from 2.5 μM to 4.9 nM. Equilibrium dissociation constant (KD) was calculated using Qdat software and 1:1 kinetic binding model.

FAK-paxillin interaction = conditions: cellular and biochemical systems; ref [5]; cited from earlier work
FAK FAT domain = tested on: FAK FAT domain; parameters: method as in PMID 40021642; conditions: ref [5]; cited from earlier work

Structure (SMILES) | cellular toxicity [1] | kinome selectivity (kinome) | paxillin pulldown (Paxillin) | binding (FAK FAT (a.a. 892–1052)) | binding selectivity across panel [2] | inhibition of FAK-paxillin interaction (FAK-paxillin interaction) | binding to FAK FAT domain (FAK FAT domain)
CNC(=O)c1ccc(Nc2ncc(C(F)(F)F)c(NCc3nccnc3N(C)S(C)(=O)=O)n2)cc1 [defactinib] | high cellular toxicity | poor kinome selectivity | – | – | – | – | –
CC(=O)N[C@@H](CC(N)=O)C(=O)N[C@@H](CC(C)C)C(=O)N[C@]1(C)CCCCCC/C=C/CCC[C@@](C)(C(=O)N[C@@H](CCC(=O)O)C(=O)N[C@@H](CC(C)C)C(=O)N[C@@H](CC(N)=O)C(N)=O)NC(=O)[C@H](CC(C)C)NC(=O)[C@H](CC(C)C)NC(=O)[C@H](CCCNC(=N)N)NC(=O)[C@H](CC(=O)O)NC(=O)[C@H](CC(C)C)NC(=O)[C@H](CCC(=O)O)NC1=O [UA-1907] | – | – | paxillin did not pulldown with UA-1907 | bound to UA-1907 in a dose-dependent manner | only the FAK-FAT domain has a nanomolar binding affinity (KD) for UA-1907, whereas other FA proteins have no binding; also recorded: strong nanomolar binding affinity to the FAT domain of FAK, while minimal affinity to other FA proteins | dose-dependently inhibits the FAK-paxillin interaction | binds the FAK FAT domain with high affinity
